The results in this text go back to PubChem BioAssay (NCI).

Several values for one entry are separate records, joined by “and”; a condition that tells them apart may be missing. Equal entries are not always repeated.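 Method: 48-hour compound exposure of cells in 96-well plates, five concentrations, linear interpolation of endpoints. GI50: concentration for 50% inhibition of growth. TGI: total growth inhibition.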 Bounds are passed on as bounds.

The first test deals with OVCAR-5 ovarian. The experiment in a line: growth of human tumour cells (NCI), 48 h.
Turning to `O=C1/C(=C/c2ccccc2[N+](=O)[O-])Cc2ccccc21`, the GI50 was 2.19 µM and the TGI was 5.36 µM.

In another test the test system is SK-MEL-28 melanoma. The test can be described thus: growth of human tumour cells (NCI), 48 h.
As to `O=C1OCC2=C1C(c1ccc(Cl)c(Cl)c1)c1cc3c(cc1N2CCO)OCCO3` (configuration not stated), the GI50 is 0.412 µM and the TGI is greater than 38.6 µM.
In the case of `O=C1c2ccccc2-c2cc([N+](=O)[O-])c([N+](=O)[O-])cc21`, the TGI stood at 8.4 µM.
For the compound `O=C(/C=C/c1cc2ccccc2[nH]c1=O)/C=C/c1cc2ccccc2[nH]c1=O`, the GI50 is 14.8 µM and the TGI was greater than 66.5 µM.
Turning to `Nc1nc(OCc2ccccc2)c2[nH]cnc2n1`, the GI50 is 46.7 µM and 62.9 µM; the TGI was 400 µM and 293 µM.
As to `Fc1ccc(/C=N/n2c(-c3ccc(F)c(Cl)c3)nn(CNc3ccccc3C(F)(F)F)c2=S)cc1`, the GI50 is 97.2 µM and the TGI is greater than 100 µM.
Take `CN[C@@H](C)C(=O)N[C@H](C(=O)N1CCC[C@H]1C(=O)Nc1sc(-c2ncco2)nc1-c1ccccc1)C1CCCCC1`: the GI50 was 16.3 µM and the TGI amounted to 33.9 µM.
In the same order, the values of `CC1=C2[C@@H](CC1)[C@]1(C)O[C@@](c3ccccc3)(C[C@H]1OC(=O)CO)[C@H]2OC(=O)/C=C/c1ccccc1` are 18.1 µM and 42.2 µM.
Regarding `CO/N=C(\COc1ccc2c(c1)[nH]c1ccccc12)c1ccc(F)cc1`, the GI50 is greater than 100 µM and the TGI was greater than 100 µM.
Take `C1CCC([PH+](C2CCCCC2)C2CCCCC2[PH+](C2CCCCC2)C2CCCCC2)CC1.[Au].[CH-]1CCCCC1CC1CCCC[N-]1` (configuration not stated): the GI50 was 0.433 µM and the TGI came out at 1.94 µM.
For `COc1cc2c3c(n(C)c(=O)c2cc1OC)-c1cc2c(cc1/C3=C\CCCCN1C(=O)c3ccccc3C1=O)OCO2`, in that order: greater than 100 µM and greater than 100 µM.
For `N#Cc1c(N2CCOCC2)nc(=S)[nH]c1-c1ccco1`, in that order: 8.45 µM and greater than 100 µM.
For `NNC(=O)CS(=O)(=O)Nc1ncccn1`, the TGI was greater than 100 µM.
Consider `O=C1NC(=O)C(N2C(=O)c3ccccc3C2=O)CC1O` (configuration not stated), for which the GI50 is greater than 100 µM and the TGI is greater than 100 µM.
Compound `COc1cc2c(cc1C1COc3cc4occc4cc3C1=O)OCO2` (configuration not stated) had a TGI greater than 100 µM.
Consider `CCOC(=O)C1=C(C)N(c2ccc(Cl)cc2)[C@]2(C#N)C(O)=C(Cl)C(Cl)=C(O)[C@]12C#N`, for which the GI50 was greater than 100 µM and the TGI is greater than 100 µM.
With `O=C1/C(=C/c2ccccc2[N+](=O)[O-])Cc2ccccc21`, the GI50 was 2.1 µM and the TGI amounted to 4.2 µM.

The next test has as its system NCI-H460 lung. The experiment in a line: growth of human tumour cells (NCI), 48 h.
Take `COc1cc(N2C(=O)[C@H](O)C2c2ccc(SC)cc2)cc(OC)c1OC` (some centres not stated): the GI50 was less than 0.01 µM and the TGI came to 13.1 µM.
With `O=C1OCC2=C1C(c1ccc(Cl)c(Cl)c1)c1cc3c(cc1N2CCO)OCCO3` (configuration not stated), the GI50 is 0.192 µM and the TGI was 5.77 µM.
For the compound `O=C1c2ccccc2-c2cc([N+](=O)[O-])c([N+](=O)[O-])cc21`, the TGI came to 3.06 µM.
Turning to `O=C(/C=C/c1cc2ccccc2[nH]c1=O)/C=C/c1cc2ccccc2[nH]c1=O`, the GI50 was 32.3 µM and the TGI was greater than 100 µM.
As for `Nc1nc(OCc2ccccc2)c2[nH]cnc2n1`, the GI50 was 35.8 µM and 37.6 µM; the TGI is 400 µM and 195 µM.
Regarding `Fc1ccc(/C=N/n2c(-c3ccc(F)c(Cl)c3)nn(CNc3ccccc3C(F)(F)F)c2=S)cc1`, the GI50 was 43.3 µM and the TGI is greater than 100 µM.
As to `CN[C@@H](C)C(=O)N[C@H](C(=O)N1CCC[C@H]1C(=O)Nc1sc(-c2ncco2)nc1-c1ccccc1)C1CCCCC1`, the GI50 was 37.7 µM and the TGI was greater than 100 µM.
For `CC1=C2[C@@H](CC1)[C@]1(C)O[C@@](c3ccccc3)(C[C@H]1OC(=O)CO)[C@H]2OC(=O)/C=C/c1ccccc1`, in that order: 16 µM and 38.2 µM.
In the same order, the values of `CO/N=C(\COc1ccc2c(c1)[nH]c1ccccc12)c1ccc(F)cc1` are greater than 100 µM and greater than 100 µM.
For `C1CCC([PH+](C2CCCCC2)C2CCCCC2[PH+](C2CCCCC2)C2CCCCC2)CC1.[Au].[CH-]1CCCCC1CC1CCCC[N-]1` (configuration not stated), the GI50 was 0.303 µM and the TGI was found to be 1.09 µM.
In the same order, the values of `COc1cc2c3c(n(C)c(=O)c2cc1OC)-c1cc2c(cc1/C3=C\CCCCN1C(=O)c3ccccc3C1=O)OCO2` are 3.52 µM and 43.7 µM.
For `N#Cc1c(N2CCOCC2)nc(=S)[nH]c1-c1ccco1`, in that order: 4.4 µM and greater than 100 µM.
Consider `NNC(=O)CS(=O)(=O)Nc1ncccn1`, for which the TGI is greater than 100 µM.
For the compound `O=C1NC(=O)C(N2C(=O)c3ccccc3C2=O)CC1O` (configuration not stated), the GI50 is greater than 100 µM and the TGI is greater than 100 µM.
With `CCOC(=O)C1=C(C)N(c2ccc(Cl)cc2)[C@]2(C#N)C(O)=C(Cl)C(Cl)=C(O)[C@]12C#N`, the GI50 is greater than 100 µM and the TGI is greater than 100 µM.
For `O=C1/C(=C/c2ccccc2[N+](=O)[O-])Cc2ccccc21`, the GI50 was 1.15 µM and the TGI was found to be 13.1 µM.

A further test deals with SN12C renal. The test can be described thus: growth of human tumour cells (NCI), 48 h.
In the case of `COc1cc(N2C(=O)[C@H](O)C2c2ccc(SC)cc2)cc(OC)c1OC` (some centres not stated), the GI50 is 0.0482 µM and the TGI was greater than 100 µM.
In the case of `O=C1OCC2=C1C(c1ccc(Cl)c(Cl)c1)c1cc3c(cc1N2CCO)OCCO3` (configuration not stated), the GI50 was 0.688 µM and the TGI is 20 µM.
For the compound `O=C1c2ccccc2-c2cc([N+](=O)[O-])c([N+](=O)[O-])cc21`, the TGI turned out to be 3.42 µM.
On to `O=C(/C=C/c1cc2ccccc2[nH]c1=O)/C=C/c1cc2ccccc2[nH]c1=O`, for which the GI50 was 12.6 µM and the TGI was greater than 86.6 µM.
`Nc1nc(OCc2ccccc2)c2[nH]cnc2n1`: the GI50 was 29.4 µM and 26.4 µM; the TGI was 400 µM and 193 µM.
As to `Fc1ccc(/C=N/n2c(-c3ccc(F)c(Cl)c3)nn(CNc3ccccc3C(F)(F)F)c2=S)cc1`, the GI50 is 39.3 µM and the TGI was greater than 100 µM.
